Key:
[1] = target: T1, IRAK4 (Homo sapiens, UniProt Q9NWZ3); test: 2-hour 1 mM ATP IRAK4 Biochemical assay (as above, but with 100 pM IRAK4 and 1 mM ATP); conditions: IRAK4 MSD BIOCHEMICAL (1 mM ATP) IC50 (μM), 100 pM IRAK4, 2 hours
T1 sequence (Q9NWZ3 1-460): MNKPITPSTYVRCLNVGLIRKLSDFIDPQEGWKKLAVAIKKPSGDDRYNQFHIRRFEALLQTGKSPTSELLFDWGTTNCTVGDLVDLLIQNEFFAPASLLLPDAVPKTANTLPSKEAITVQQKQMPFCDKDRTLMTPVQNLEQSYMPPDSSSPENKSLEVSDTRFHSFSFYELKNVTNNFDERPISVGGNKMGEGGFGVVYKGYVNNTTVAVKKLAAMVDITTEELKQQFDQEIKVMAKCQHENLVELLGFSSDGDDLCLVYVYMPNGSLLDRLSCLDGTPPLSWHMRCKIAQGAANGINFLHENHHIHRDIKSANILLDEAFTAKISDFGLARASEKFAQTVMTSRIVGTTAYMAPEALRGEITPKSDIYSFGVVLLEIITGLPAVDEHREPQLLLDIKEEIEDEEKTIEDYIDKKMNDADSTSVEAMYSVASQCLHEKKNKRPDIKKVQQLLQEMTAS
Procedure, shortened: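 Run with 100 pM IRAK4 and 1 mM ATP for 2 hours, quenched with EDTA pH 8. Phosphorylated biotinylated peptide captured on streptavidin MSD plates and detected with anti-phosphothreonine antibody plus Sulfo-Tag secondary by electrochemiluminescence.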

[2] = target: T1, IRAK4; test: 2-hour 10 μM ATP Biochemical Assay (MesoScale Detection format; IRAK4 phosphorylation of biotin labeled IRAK1 activation loop peptide); conditions: IRAK4 MSD BIOCHEMICAL (10 μM ATP) IC50 (μM), 1 nM IRAK4, 2 hours
Procedure, shortened: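 Kinase reaction run 2 h at 10 μM ATP with biotinylated IRAK1 activation-loop peptide, quenched with EDTA. Phospho-peptide captured on streptavidin MSD plates and detected with anti-phosphothreonine rabbit antibody plus Sulfo-Tag anti-rabbit electrochemiluminescence.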

Structure (SMILES) | IC50 [1] [µM] | IC50 [2] [µM]
CCOc1cc2nc(COC)cn2cc1NC(=O)c1cccc(C(F)(F)F)n1 [Example 56, N-(7-ethoxy-2-(methoxymethyl)imidazo[1,2-a]pyridin-6-yl)-6-(trifluoromethyl)picolinamide] | 0.014 | 0.005
CCOc1cc2nc([C@@H](O)C3CC3)cn2cc1NC(=O)c1cccc(C(F)(F)F)n1 (single isomer, unassigned) [Example 169] | 0.009 | 0.003
CCOc1cc2nc(C(C)(C)O)cn2cc1NC(=O)c1cccc(C(F)(F)F)n1 [Example 19, N-(7-ethoxy-2-(2-hydroxypropan-2-yl)imidazo[1,2-a]pyridin-6-yl)-6-(trifluoromethyl)picolinamide] | 0.044 | 0.009
CCOc1cc2nc(C(C)(C)O)cn2cc1NC(=O)c1cccc(C(F)F)n1 [Example 100, 6-(difluoromethyl)-N-(7-ethoxy-2-(2-hydroxypropan-2-yl)imidazo[1,2-a]pyridin-6-yl)picolinamide] | 0.011 | 0.008
CCOc1cc2nc(C(F)(F)CCOC)cn2cc1NC(=O)c1cccc(C(F)F)n1 [Example 149, N-(2-(1,1-difluoro-3-methoxypropyl)-7-ethoxyimidazo[1,2-a]pyridin-6-yl)-6-(difluoromethyl)picolinamide] | 0.003 | 0.002
CCOc1cc2nc(C3CN(C(C)=O)C3)cn2cc1NC(=O)c1cccc(C(F)(F)F)n1 [Example 68, N-(2-(1-acetylazetidin-3-yl)-7-ethoxyimidazo[1,2-a]pyridin-6-yl)-6-(trifluoromethyl)picolinamide] | 0.001 | 0.001
CCOc1cc2nc(CC3CCOC3)cn2cc1NC(=O)c1ccn(CC(F)(F)F)n1 (centres unmarked) [Example 123, N-(7-ethoxy-2-((tetrahydrofuran-3-yl)methyl)imidazo[1,2-a]pyridin-6-yl)-1-(2,2,2-trifluoroethyl)-1H-pyrazole-3-carboxamide] | 0.014 | 0.008
CCOc1cc2nc(C(C)(C)C#N)cn2cc1NC(=O)c1cccc(C(F)F)n1 [Example 152, N-(2-(2-cyanopropan-2-yl)-7-ethoxyimidazo[1,2-a]pyridin-6-yl)-6-(difluoromethyl)picolinamide] | 0.004 | 0.004
CCOc1cc2nc(C34CC(F)(C3)C4)cn2cc1NC(=O)c1cccc(C(F)F)n1 [Example 127, 6-(difluoromethyl)-N-(7-ethoxy-2-(3-fluorobicyclo[1.1.1]pentan-1-yl)imidazo[1,2-a]pyridin-6-yl)picolinamide] | 0.003 | 0.001
CCOc1cc2nc(C3CCOCC3)cn2cc1NC(=O)c1cccc(OC2CCC2)n1 [Example 236, 6-cyclobutoxy-N-(7-ethoxy-2-(tetrahydro-2H-pyran-4-yl)imidazo[1,2-a]pyridin-6-yl)picolinamide] | 0.019 | 0.006
O=C(Nc1cn2cc(C3CC3)nc2cc1OCC(F)(F)F)c1cccc(C(F)F)n1 [Example 26, N-(2-cyclopropyl-7-(2,2,2-trifluoroethoxy)imidazo[1,2-a]pyridin-6-yl)-6-(difluoromethyl)picolinamide] | 0.007 | 0.003
CCOc1cc2nc(CCC(F)F)cn2cc1NC(=O)c1cccc(C(F)F)n1 [Example 110, 6-(difluoromethyl)-N-(2-(3,3-difluoropropyl)-7-ethoxyimidazo[1,2-a]pyridin-6-yl)picolinamide] | 0.001 | 0.001
CCOc1cc2nc(CC3CCOC3)cn2cc1NC(=O)c1cccc(OC)n1 (centres unmarked) [Example 134, N-(7-ethoxy-2-((tetrahydrofuran-3-yl)methyl)imidazo[1,2-a]pyridin-6-yl)-6-methoxypicolinamide] | 0.009 | 0.002
CCOc1cc2nc(C34CC(CO)(C3)C4)cn2cc1NC(=O)c1cccc(C(F)F)n1 [Example 130, 6-(difluoromethyl)-N-(7-ethoxy-2-(3-(hydroxymethyl)bicyclo[1.1.1]pentan-1-yl)imidazo[1,2-a]pyridin-6-yl)picolinamide] | 0.001 | 0.001
CCOc1cc2nc(CCC(C)(C)O)cn2cc1NC(=O)c1cccc(C(F)F)n1 [Example 27, 6-(difluoromethyl)-N-(7-ethoxy-2-(3-hydroxy-3-methylbutyl)imidazo[1,2-a]pyridin-6-yl)picolinamide] | 0.001 | 0.001

Further lines, results first:

IC50 [1] [µM] | IC50 [2] [µM] | Structure (SMILES)
0.001 | 0.001 | CCOc1cc2nc(C(C)C3CCOC3)cn2cc1NC(=O)c1cccc(C(F)(F)F)n1 (single isomer, unassigned) [Example 139]
0.001 | 0.001 | CCOc1cc2nc(C3CN(C(C)=O)C3)cn2cc1NC(=O)c1cccc(C(F)F)n1 [Example 81, N-(2-(1-acetylazetidin-3-yl)-7-ethoxyimidazo[1,2-a]pyridin-6-yl)-6-(difluoromethyl)picolinamide]
0.001 | 0.001 | CCOc1cc2nc(C(C)C3CCOC3)cn2cc1NC(=O)c1cccc(C(F)(F)F)n1 (mixture of isomers) [Example 137, N-(7-ethoxy-2-(1-(tetrahydrofuran-3-yl)ethyl)imidazo[1,2-a]pyridin-6-yl)-6-(trifluoromethyl)picolinamide]
0.001 | 0.001 | CCOc1cc2nc([C@H](C)[C@H]3CCOC3)cn2cc1NC(=O)c1cccc(C(F)(F)F)n1 (single isomer, unassigned) [Example 141]
0.004 | 0.002 | N#CCOc1cc2nc(C3CCOCC3)cn2cc1NC(=O)c1cccc(C(F)F)n1 [Example 172, N-(7-(cyanomethoxy)-2-(tetrahydro-2H-pyran-4-yl)imidazo[1,2-a]pyridin-6-yl)-6-(difluoromethyl)picolinamide]
0.011 | 0.001 | CCOc1cc2nc(C3CCOCC3)cn2cc1NC(=O)c1scc2c1OCCO2 [Example 221, N-(7-ethoxy-2-(tetrahydro-2H-pyran-4-yl)imidazo[1,2-a]pyridin-6-yl)-2,3-dihydrothieno[3,4-b][1,4]dioxine-5-carboxamide]
0.023 | 0.007 | CCOc1cc2nc(C3CCOCC3)cn2cc1NC(=O)c1ccccn1 [Example 216, N-(7-ethoxy-2-(tetrahydro-2H-pyran-4-yl)imidazo[1,2-a]pyridin-6-yl)picolinamide]
0.038 | 0.023 | O=C(Nc1cn2cc(C3CCOCC3)nc2cn1)c1cccc(C(F)F)n1 [Example 330, 6-(difluoromethyl)-N-(2-(tetrahydro-2H-pyran-4-yl)imidazo[1,2-a]pyrazin-6-yl)picolinamide]
0.041 | 0.01 | CCOc1cc2nc(C3CCOCC3)cn2cc1NC(=O)c1ccn2c1CCCC2 [Example 222, N-(7-ethoxy-2-(tetrahydro-2H-pyran-4-yl)imidazo[1,2-a]pyridin-6-yl)-5,6,7,8-tetrahydroindolizine-1-carboxamide]
0.001 | 0.001 | CCOc1cc2nc([C@H](C)[C@@H]3CCOC3)cn2cc1NC(=O)c1cccc(C(F)(F)F)n1 (single isomer, unassigned) [Example 138]
0.003 | 0.001 | CCOc1cc2nc(C3CCOCC3)cn2cc1NC(=O)c1cccc(C)n1 [Example 224, N-(7-ethoxy-2-(tetrahydro-2H-pyran-4-yl)imidazo[1,2-a]pyridin-6-yl)-6-methylpicolinamide]
0.056 | 0.013 | CCOc1cc2nc(C3CCOCC3)cn2cc1NC(=O)c1cccc(C(F)F)c1 [Example 228, 3-(difluoromethyl)-N-(7-ethoxy-2-(tetrahydro-2H-pyran-4-yl)imidazo[1,2-a]pyridin-6-yl)benzamide]
0.002 | 0.001 | CC1(C)CC(Oc2cc3nc(C4CCOCC4)cn3cc2NC(=O)c2cccc(C(F)F)n2)CO1 (centres unmarked) [Example 184, 6-(difluoromethyl)-N-(7-((5,5-dimethyltetrahydrofuran-3-yl)oxy)-2-(tetrahydro-2H-pyran-4-yl)imidazo[1,2-a]pyridin-6-yl)picolinamide]
0.017 | 0.006 | CCOc1cc2nc(C3CCOCC3)cn2cc1NC(=O)c1cccc(OC(F)F)n1 [Example 362, 6-(difluoromethoxy)-N-(7-ethoxy-2-(tetrahydro-2H-pyran-4-yl)imidazo[1,2-a]pyridin-6-yl)picolinamide]
0.009 | 0.002 | CC1(COc2cc3nc(C4CCOCC4)cn3cc2NC(=O)c2cccc(C(F)(F)F)n2)COC1 [Example 166, N-(7-((3-methyloxetan-3-yl)methoxy)-2-(tetrahydro-2H-pyran-4-yl)imidazo[1,2-a]pyridin-6-yl)-6-(trifluoromethyl)picolinamide]
0.001 | 0.001 | CCOc1cc2nc(C3CCOCC3)cn2cc1NC(=O)c1cccc(C(F)F)n1 [Example 116, 6-(difluoromethyl)-N-(7-ethoxy-2-(tetrahydro-2H-pyran-4-yl)imidazo[1,2-a]pyridin-6-yl)picolinamide]

From patent publication US20220089592A1, “IMIDAZO[1,2-A]PYRIDINYL DERIVATIVES AS IRAK4 INHIBITORS” (priority 2019, published 2022)
